# In article PMC7851014 (Investigational New Drugs, 2020):
# Read-outs that look alike come from different tables or passages of the source.
# How the values were obtained:
# [1] = Ibrutinib and SMT-conjugate pharmacokinetics in human subjects (plasma of patients A and B); settings: for Tmax / half-life / concentration at 1.4 h / concentration at 0.5 h / concentration at 0.8 h / concentration at 22.7 h / concentration at 22.2 h / concentration at 22.6 h / concentration at 2.5 h / concentration at 3.8 h / concentration at 1.5 h / concentration at 23.3 h / concentration at 2.8 h / concentration at 4.1 h / concentration at 4.4 h / concentration at 2.4 h / concentration at 3.9 h: human; for concentration at 2.5 h: sample ID 13, T 2.5 h; for concentration at 2.5 h / concentration at 3.8 h / concentration at 2.8 h / concentration at 4.1 h / concentration at 4.4 h / concentration at 2.4 h / concentration at 3.9 h: group max; for concentration at 2.8 h: sample ID 4, T 2.8 h; for concentration at 2.4 h: sample ID 12, T 2.4 h; for concentration at 3.9 h: sample ID 17, T 3.9 h
# Experimental: (§1) For analysis, 200 μL acetonitrile containing the internal standards was added to 100 μL sample. After mixing and centrifuging, 200 μL supernatant was transferred, and thereafter the solvent was partially evaporated. Before the samples were analyzed by ultra-high-performance liquid chromatography with mass spectrometer detection [21], 100 μL of mobile phase (water:acetonitrile:formic acid, 90:10:0.1 (v:v:v)) was added.
# When no time was available at all, the sample was omitted. […] Pharmacokinetic (PK) data was analyzed using the PKNCA package (version 0.8.1) [22] for the statistical software R (version 3.4.2) [23] and RStudio (version 1.1.383) [24].
# [2] = Human ibrutinib metabolism during CYP3A4 inhibition (patient C, plasma, concomitant voriconazole); settings: for half-life / AUC(0-t): human, plasma, oral; for AUC(0-t): 140 mg; for Exposure relative to Sum of quantified compounds / Exposure relative to ibrutinib: patient C, AUC0-24h,ss, concomitant voriconazole
# Experimental: as §1
# Time-concentration data of three patients were analyzed. […] When no time was available at all, the sample was omitted. […] Pharmacokinetic (PK) data was analyzed using the PKNCA package (version 0.8.1) [22] for the statistical software R (version 3.4.2) [23] and RStudio (version 1.1.383) [24].
# [3] = Metabolism of IGSH in culture medium; type: in vitro ADME
# Experimental: During ibrutinib incubations, IGSH was formed intracellularly and transported extracellularly where it was metabolized to ICGS and further to ICYS. IGSH and ICYS were mainly found intracellularly. […] Medium composition influences the metabolism of IGSH. IGSH was metabolized 32% faster in medium with 10% calf serum, when compared to serum-free samples. Medium that was pre-incubated with ciPTEC for 48 h (conditioned medium) was included in the experiments to investigate the possible role of secreted enzymes in the medium. The metabolism of IGSH to ICGS appeared to be 36% faster in conditioned medium.
# ɣ-GT from equine kidney = test: ɣ-glutamyl transferase assay (conversion of IGSH to ICGS); type: biochemical; settings: approximate kinetic parameters
# Experimental: IGSH was incubated with 50 mU/L ɣ-GT in a concentration range of 10–10,000 nM in phosphate buffer (100 mM, pH 7.4) at 37 °C. Michaelis-Menten kinetics were calculated by Eadie-Hofstee transformation.
# ciPTEC = settings: for detection as secondary bioactivation-metabolite of ICYS: ciPTEC
# Experimental: Medium and cell lysate samples were taken at 1, 2, 3 and 4 h. Each time point was measured in duplicate. Preincubation (t0) analyte concentrations in medium were also analyzed.
# [4] = Half-life of IGSH in human plasma; type: in vitro ADME; settings: 37 °C, in vitro
# BCRP = system: BCRP; parameters: method as in PMID 27001813; settings: cited from earlier work
# ɣ-GT [5] = molecular target: T1, ɣ-GT (Homo sapiens, UniProt P19440); test: ɣ-GT inhibition in ciPTEC; type: cell-based; settings: 100 μM acivicin pre-incubation 2.5 h, 2 μM ibrutinib, 4 h, intra- and extracellularly
# T1 construct: host or cells: ciPTEC (human conditionally immortalized proximal tubule epithelial cells)
# T1 sequence (P19440 whole entry): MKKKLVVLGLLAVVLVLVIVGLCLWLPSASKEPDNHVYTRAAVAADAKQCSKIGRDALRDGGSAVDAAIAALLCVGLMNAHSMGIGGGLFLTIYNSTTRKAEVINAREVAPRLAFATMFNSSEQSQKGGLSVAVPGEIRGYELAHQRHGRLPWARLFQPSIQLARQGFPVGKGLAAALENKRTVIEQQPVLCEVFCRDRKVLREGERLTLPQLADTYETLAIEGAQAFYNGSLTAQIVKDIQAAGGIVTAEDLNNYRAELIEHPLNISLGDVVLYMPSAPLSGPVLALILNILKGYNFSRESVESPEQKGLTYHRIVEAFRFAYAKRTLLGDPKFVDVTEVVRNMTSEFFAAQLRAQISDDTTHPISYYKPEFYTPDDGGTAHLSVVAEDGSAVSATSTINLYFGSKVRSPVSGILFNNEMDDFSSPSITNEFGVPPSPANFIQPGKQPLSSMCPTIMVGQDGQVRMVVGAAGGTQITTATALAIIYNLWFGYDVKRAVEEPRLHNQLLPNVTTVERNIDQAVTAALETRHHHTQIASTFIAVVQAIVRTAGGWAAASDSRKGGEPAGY
# Experimental: The formation of metabolites in medium and cells was monitored after 4 h. Ɣ-GT activity in human plasma and calf serum was measured on a Beckmann Coulter AU5800 (Fullerton, CA, USA) clinical chemistry analyzer, with a limit of quantitation of 1 U/L.
# ɣ-GT [6] = system: ɣ-GT; parameters: method as in PMID 9178957; settings: cited from earlier work
# dehydropeptidase I = settings: cited from earlier work
# GST [7] = test: GST activity in ciPTEC lysate; settings: 100 μM, pre-incubating lysate for 2.5 h
# GST [8] = system: GST; parameters: method as in PMID 8706007; settings: cited from earlier work
# [9] = 420 mg, patient A, sample ID 2, T 1.4 h, 1xdd 420mg, group abs
# [10] = 420 mg, patient A, sample ID 5, T 0.5 h, 1xdd 420mg, group abs
# [11] = 420 mg, patient A, sample ID 6, T 0.8 h, 1xdd 420mg, group abs
# [12] = 420 mg, patient A, sample ID 8, T 22.7 h, 1xdd 420mg, group trough
# [13] = 420 mg, patient A, sample ID 10, T 22.2 h, 1xdd 420mg, group trough
# [14] = 420 mg, patient A, sample ID 11, T 22.6 h, 1xdd 420mg, group trough
# [15] = 420 mg, patient A, sample ID 14, T 3.8 h, 1xdd 420mg
# [16] = 420 mg, patient A, sample ID 16, T 1.5 h, 1xdd 420mg, group abs
# [17] = 420 mg, patient A, sample ID 19, T 23.3 h, 1xdd 420mg, group trough
# [18] = 420 mg, patient A, sample ID 21, T 0.8 h, 1xdd 420mg, group abs
# [19] = 560 mg, patient A, sample ID 3, T 0.8 h, 1xdd 560mg, group abs
# [20] = 560 mg, patient B, sample ID 7, T 4.1 h, 1xdd 560mg
# [21] = 560 mg, patient B, sample ID 9, T 4.4 h, 1xdd 560mg
# [22] = 560 mg, patient B, sample ID 20, T 3.8 h, 1xdd 560mg
# [23] = 560 mg, patient B, sample ID 23, T 4.1 h, 1xdd 560mg
# [24] = 560 mg, patient B, sample ID 24, T 4.4 h, 1xdd 560mg
# [25] = patient A, sample ID 15, T NA, 1xdd 420mg, omitted (no group)
# [26] = patient A, sample ID 22, T NA, 1xdd 420mg, omitted (no group)
SMILES,Tmax [1],half-life [1],"concentration at 1.4 h [1, 9]","concentration at 0.5 h [1, 10]","concentration at 0.8 h [1, 11]","concentration at 22.7 h [1, 12]","concentration at 22.2 h [1, 13]","concentration at 2.5 h ([1]; 420 mg, patient A, 1xdd 420mg)","concentration at 3.8 h [1, 15]","concentration at 0.8 h [1, 19]","concentration at 2.8 h ([1]; 560 mg, patient B, 1xdd 560mg)","concentration at 4.1 h [1, 20]","concentration at 4.4 h [1, 21]","concentration at 2.4 h ([1]; 560 mg, patient B, 1xdd 560mg)","concentration at 3.9 h ([1]; 560 mg, patient B, 1xdd 560mg)","concentration at 3.8 h [1, 22]","concentration at 4.1 h [1, 23]","concentration at 4.4 h [1, 24]","Concentration [1, 25]","Concentration [1, 26]",other results
"Nc1ncnc2c1c(-c1ccc(Oc3ccccc3)cc1)nn2[C@@H]1CCCN(C(=O)C(O)CO)C1 (some centres unmarked) [DHI, dihydrodiol-ibrutinib]",3.9 h,6.1 h,43.9 nM,51.6 nM,48.3 nM,86.6 nM,90.7 nM,404 nM,195 nM,17.5 nM,346 nM,523 nM,393 nM,450 nM,542 nM,524 nM,468 nM,484 nM,59.3 nM,< LLOQ,"concentration at 22.6 h [1, 14]: 45.3 nM; concentration at 1.5 h [1, 16]: 24 nM; concentration at 23.3 h [1, 17]: 30.5 nM; concentration at 0.8 h [1, 18]: 188 nM; half-life [2]: 59 h; AUC(0-t) [2]: 0.149 µM·h; Exposure relative to Sum of quantified compounds [2]: 23%; Exposure relative to ibrutinib [2]: 46%"
Nc1ncnc2c1c(-c1ccc(Oc3ccccc3)cc1)nn2[C@@H]1CCCN(C(=O)CCSC[C@H](N)C(=O)NCC(=O)O)C1 [ICGS],2.6 h,3 h,6.7 nM,5.4 nM,7.3 nM,5.6 nM,3.7 nM,412 nM,72.5 nM,9.7 nM,160 nM,191 nM,88.1 nM,73.2 nM,226 nM,78 nM,239 nM,160 nM,5.1 nM,< LLOQ,"concentration at 22.6 h [1, 14]: 3 nM; concentration at 1.5 h [1, 16]: 2.2 nM; concentration at 23.3 h [1, 17]: 0.6 nM; concentration at 0.8 h [1, 18]: 11.9 nM; half-life [2]: 40.1 h; AUC(0-t) [2]: 0.0949 µM·h; Exposure relative to Sum of quantified compounds [2]: 14%; Exposure relative to ibrutinib [2]: 29%"
Nc1ncnc2c1c(-c1ccc(Oc3ccccc3)cc1)nn2[C@@H]1CCCN(C(=O)CCSC[C@H](N)C(=O)O)C1 [ICYS],4.4 h,4.2 h,5 nM,5.1 nM,5.6 nM,6.4 nM,5 nM,186 nM,32.1 nM,3.9 nM,92.8 nM,170 nM,89.2 nM,210 nM,143 nM,78.7 nM,194 nM,210 nM,12.1 nM,< LLOQ,"concentration at 22.6 h [1, 14]: 4.7 nM; concentration at 1.5 h [1, 16]: 2.3 nM; concentration at 23.3 h [1, 17]: 2.6 nM; concentration at 0.8 h [1, 18]: 12 nM; half-life [2]: 78.3 h; AUC(0-t) [2]: 0.0877 µM·h; Exposure relative to Sum of quantified compounds [2]: 13%; Exposure relative to ibrutinib [2]: 27%"
Nc1ncnc2c1c(-c1ccc(Oc3ccccc3)cc1)nn2[C@@H]1CCCN(C(=O)CCSC[C@H](NC(=O)CC[C@H](N)C(=O)O)C(=O)NCC(=O)O)C1 [IGSH],2.8 h,,,,,,,1.5 nM,0.5 nM,0.5 nM,3.5 nM,1.5 nM,0.8 nM,0.8 nM,1.9 nM,0.8 nM,2.2 nM,1.4 nM,< LLOQ,< LLOQ,"metabolism of IGSH to ICGS faster ([3]; conditioned medium (pre-incubated with ciPTEC for 48 h)): 36%; IGSH metabolized faster ([3]; medium with 10% calf serum compared to serum-free samples): 32%; Concentration ([1]; patient A, sample ID 2, T 1.4 h, 1xdd 420mg, group abs): < LLOQ; Concentration ([1]; patient A, sample ID 5, T 0.5 h, 1xdd 420mg, group abs): < LLOQ; Concentration ([1]; patient A, sample ID 6, T 0.8 h, 1xdd 420mg, group abs): < LLOQ; Concentration ([1]; patient A, sample ID 8, T 22.7 h, 1xdd 420mg, group trough): < LLOQ; Concentration ([1]; patient A, sample ID 10, T 22.2 h, 1xdd 420mg, group trough): < LLOQ; Concentration ([1]; patient A, sample ID 11, T 22.6 h, 1xdd 420mg, group trough): < LLOQ; Concentration ([1]; patient A, sample ID 16, T 1.5 h, 1xdd 420mg, group abs): < LLOQ; Concentration ([1]; patient A, sample ID 19, T 23.3 h, 1xdd 420mg, group trough): < LLOQ; Concentration ([1]; patient A, sample ID 21, T 0.8 h, 1xdd 420mg, group abs): < LLOQ; Ctrough ([1]; patients A and B, 'trough' samples n = 4, mean ± SD (range)): <0.5 nM; Km (ɣ-GT from equine kidney): 0.588 µM; Vmax (ɣ-GT from equine kidney): 25.8 μmol∙min^−1∙U^−1; uptake into ciPTEC (ciPTEC; incubating with IGSH (1 μM) directly for 4 h): no uptake; half-life at 500 nM [4]: 0.5 h"
CSCCC(=O)N1CCC[C@@H](n2nc(-c3ccc(Oc4ccccc4)cc3)c3c(N)ncnc32)C1 [S-methyl-ibrutinib],,,,,,,,,,,,,,,,,,,,,detection as secondary bioactivation-metabolite of ICYS (ciPTEC; after 48 h with ibrutinib): detected
C[C@@H](c1ncncc1F)[C@](O)(Cn1cncn1)c1ccc(F)cc1F [Voriconazole],,,,,,,,,,,,,,,,,,,,,inhibition of BCRP (BCRP): some inhibition
N[C@H](C(=O)O)[C@@H]1CC(Cl)=NO1 [acivicin],,,,,,,,,,,,,,,,,,,,,effect on metabolism of IGSH in ciPTEC (ɣ-GT [5]): blocked; IC99 (ɣ-GT [6]): 50 µM
CC1(C)C[C@@H]1C(=O)N/C(=C\CCCCSC[C@H](N)C(=O)O)C(=O)O [cilastatin],,,,,,,,,,,,,,,,,,,,,IC50 (dehydropeptidase I): 100 µM
C=C(CC)C(=O)c1ccc(OCC(=O)O)c(Cl)c1Cl [ethacrynic acid],,,,,,,,,,,,,,,,,,,,,effect on formation of IGSH in ciPTEC lysate (GST [7]): inhibited; IC97 (GST [8]): 15 µM
Nc1ncnc2c1c(-c1ccc(Oc3ccccc3)cc1)nn2C1CCCN(C(=O)CCSC2OC(C(=O)O)C(O)C(O)C2O)C1 (centres unmarked) [ibrutinib-S-glucuronide],,,,,,,,,,,,,,,,,,,,,detection as secondary bioactivation-metabolite of ICYS (ciPTEC; 4 h incubation with ibrutinib): clearly found
